Publication PMC11100219, “Dual-function antimicrobial-antibiofilm peptide hybrid to tackle biofilm-forming Staphylococcus epidermidis” (Annals of Clinical Microbiology and Antimicrobials, 2024)
Residues, ends and D or L forms follow the SMILES beside them.

Test system: S. epidermidis biofilm cells
Assay: Biofilm cell viability, MTT assay
Assay type: cell-based, Staphylococcus epidermidis
Settings: 24 h
Method: The biofilm cell viability after treated with hybrid peptide BiF2_5K7K was examined by 3-(4,5-Dimethylthiazol-2-yl)-2,5-Diphenyltetrazolium bromide or MTT colorimetric assays. Bacterial suspensions (10^6 CFU/mL in TSB) and peptide at concentration ranging from 0.98 to 250 µg/mL in 10 mM PBS were incubated in 96-well microtiter plates at 37°C for 24 h. After incubation, supernatant was discarded, followed by the addition of 0.4 mg/mL MTT (Sigma-Aldrich, USA) in 10 mM PBS to each well and incubated for 3 h at 37°C. Subsequently, supernatant was removed and dimethyl sulfoxide (DMSO; Fisher BioReagents™, UK) was added to dissolve the formed formazan crystals in wells. At a wavelength of 570 nm, the optical densities of the solutions were then determined by microplate reader.

CC[C@H](C)[C@H](NC(=O)[C@H](CCCCN)NC(=O)[C@H](CCCCN)NC(=O)[C@@H](NC(=O)[C@H](CC(C)C)NC(=O)[C@@H](N)Cc1ccccc1)C(C)C)C(=O)N[C@@H](CCCCN)C(=O)N[C@@H](CCCCN)C(=O)N[C@H](C(=O)N[C@@H](CC(C)C)C(=O)N[C@@H](CCCNC(=N)N)C(=O)N[C@@H](CCCNC(=N)N)C(N)=O)[C@@H](C)CC [BiF2_5K7K] (H-FLVKKIKKILRR-NH2; N-terminus assumed)
viability of biofilm cells (at MIC (15.63 µg/mL)): remained viable
viability of biofilm cells (at higher concentrations (>15.63 µg/mL)): no growth of biofilm cells
